Publication PMC11819603, “Development of a reliable, sensitive, and convenient assay for the discovery of new eIF5A hypusination inhibitors” (PLOS ONE, 2025)
Where two headings read alike, the source gives them in different places.

Tests used:
DHPS [1] = biological target: T1, DHPS (Homo sapiens, UniProt P49366); test: Hyp'Assay: cell-free eIF5A hypusination in 96-well plates (recombinant eIF5A, DHPS, DOHH; anti-hypusine antibody Hpu24), substance present in the DHPS step; type: biochemical
T1 construct: host or cells: E. coli BL21 (DE3)
T1 sequence (P49366 1-369): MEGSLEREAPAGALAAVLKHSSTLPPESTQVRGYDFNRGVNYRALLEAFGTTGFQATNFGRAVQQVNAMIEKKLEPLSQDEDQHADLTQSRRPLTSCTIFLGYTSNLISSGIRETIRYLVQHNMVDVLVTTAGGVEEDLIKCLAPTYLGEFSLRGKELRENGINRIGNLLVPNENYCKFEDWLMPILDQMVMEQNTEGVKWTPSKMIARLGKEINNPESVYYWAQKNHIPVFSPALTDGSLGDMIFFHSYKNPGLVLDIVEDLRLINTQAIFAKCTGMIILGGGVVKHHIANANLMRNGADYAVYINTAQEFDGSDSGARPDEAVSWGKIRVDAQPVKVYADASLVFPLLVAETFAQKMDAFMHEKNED
Protocol: The principle of the Hyp’Assay (Fig 2A) is to perform eIF5A hypusination reaction in 96-well plates, allow eIF5A to adsorb to the plate, incubate with an anti-hypusine antibody and a secondary antibody conjugated to HRP and reveal hypusination using TMB as a substrate.
[…] Then 10 μL containing 1 μg of DOHH with 10 μM Fe^2+ (H8FeN2O8S2^. 6H2O) were added. After 1 h proteins were analyzed by Western Blot using antibodies toward DHPS, DOHH, Hypusine, and eIF5A.
(§1) The cell-free reaction described in 4.4 is performed in triplicates in a 96-wells plate (MaxiSorp, ThermoFisher) in the presence of 3 μg of eIF5A, 2 μg of DHPS, and 2 μg of DOHH by well. The reaction product, hypusinated eIF5A, is adsorbed onto the plate overnight at 4°C. The plate is washed (100 μL/well) thrice with PBS-T (PBS– 0.05% Tween20), then saturated with 1% non-fat dry milk in PBS-T for 2 h at room temperature. The plate is washed thrice with PBS-T and incubated overnight at 4°C with the anti-hypusine antibody (1:2000 in saturation buffer, 50 μL/well). The next day and after 5 washes with PBS-T, HRP-coupled anti-rabbit secondary antibody diluted 1:5000 in saturation buffer (50 μL/well) is added for 2 h at room temperature.

DHPS [2] = biological target: T1, DHPS; test: Hyp'Assay without DOHH: deoxyhypusination of eIF5A revealed with Hpu98 antibody; type: biochemical; conditions: 5 μM spermidine
From the text: To address this issue, we compared the ability of GC7 to inhibit DHPS or DOHH by adding GC7 during the first step of the Hyp’Assay; when DHPS mediates the deoxyhypusination reaction (Fig 2A), or only during the second step, when DOHH hydroxylate deoxyhypusinated eIF5A. […] This confirms the specificity of GC7 towards DHPS. When finding new hypusination inhibitors adding them during the first or the second step of the Hyp’Assay will allow us to determine if the inhibition affects DHPS or DOHH. Another way to discriminate between DHPS or DOHH inhibitors would be to use Hpu98, an antibody that recognized both hypusinated and deoxyhypusinated eIF5A, instead of Hpu24, which is specific for hypusinated eIF5A [18]. […] We performed a new Hyp’Assay by omitting DOHH in the reaction mix and using the Hpu98 antibody. First, we performed a dose response experiment with spermidine at pH: 8.0 and 9.0 (Fig 3E). The Hyp’Assay allows the detection of deoxyhypusinated eIF5A in a spermidine-dependent manner. Under these conditions, deoxyhypusination was equally efficient at both pH tested. […] We also tested the ability of GC7 (Fig 3F) and CPX or EDTA (Fig 3G) to inhibit DHPS. […] This provided us with another method to distinguish between DHPS and DOHH inhibitors.
as §1

[3] = system: eIF5A hypusination in MCF7 cells; test: eIF5A hypusination in intact MCF7 cells, Western blot; type: cell-based, human; conditions: 24 h
Protocol: (§2) We tested the ability of the GC7 analogs to inhibit hypusination in intact cells. MCF-7 cells (Fig 5B), a classical model of breast cancer cell line, and HT29 cells (Fig 5C), a cell model of colorectal cancer, were treated with 40 μM of GC7, 1, 2, 3, and 4 for 24h. Cells were lysed and analyzed by Western blot. As observed, none of the molecules modified eIF5A expression. […] GC7 analogs inhibited hypusination from 35 to 55%.
The human breast cancer cell line MCF7 (HTB-22 ATCC) and colorectal adenocarcinoma HT29 (HTB-38 ATCC) were cultured in DMEM (Gibco) supplemented with 10% FBS (Dutscher), 10 U/mL penicillin, and […] streptomycin. 1 mM of aminoguanidine was added to the medium to inhibit the degradation of GC7 and polyamines by amine oxidase from the serum and the production of reactive oxygen species. Cells were maintained at 37°C, 5% CO2 in a humid atmosphere.
(§3) After treatment, cells were washed with ice-cold PBS and lysed in RIPA Buffer (50 mM Tris pH 7.5, 150 mM NaCl, 0.1% SDS, 0.5% Na Deoxycholate, 5 mM NaF, 2.5 mM Na4P2O7, 1% NP4O) containing a protease inhibitor cocktail (complete Roche). 10 μg of proteins were separated by SDS PAGE and transferred to a PVDF membrane (Immobilon-P Millipore). The membranes were probed with the appropriate primary antibody that was detected by horseradish peroxidase-conjugated secondary antibody (Jackson Immunoresearch) and visualized by chemiluminescence (ECL Amersham RPN 3244) using a Fuji LAS-4000 imager. ImageJ® software was used to quantify band intensity and the ratios of proteins of interest were normalized to a loading control. Full-length Western blots are provided in the supplementary data (S19, S20 Figs).

[4] = system: eIF5A hypusination in HT29 cells; test: eIF5A hypusination in intact HT29 cells, Western blot; type: cell-based; conditions: Homo sapiens, HT-29, 24 h
Protocol: as §2
The human breast cancer cell line MCF7 (HTB-22 ATCC) and colorectal adenocarcinoma HT29 (HTB-38 ATCC) were cultured in DMEM (Gibco) supplemented with 10% FBS (Dutscher), 10 U/mL penicillin, and 10 mg/mL streptomycin. […]
as §3, with “10 μg of proteins were separated by SDS PAGE and transferred to a PVDF membrane (Immobilon-P Millipore).” left out, “Full-length Western blots are provided in the supplementary data (S19, S20 Figs).” left out

DHPS [5] = conditions: read-out: IC50 previously reported, cited from earlier work

N=C(N)NCCCCCCCN [GC7, N1-guanyl-1,7-diaminoheptane]
concentration at which inhibition was complete (DHPS [1]; 5 μM spermidine): 1 µM
concentration at which inhibition was detectable (DHPS [1]; 5 μM spermidine): 0.01 µM
concentration at which the inhibitory effect began (DHPS [1]; 100 μM spermidine): 0.1 µM
concentration of maximal inhibitory effect (DHPS [1]; 100 μM spermidine): 10 µM
Relative hypusination of eIF5A, Mean (quantification from Figure 3D) (DHPS [1]; GC7 added during the DHPS step, 5 μM spermidine, CTRL 100,0): 4,227 a.u
hypusination signal, Mean (quantification from Figure 3A) (DHPS [1]; Spermidine 5 µM, GC7 1 (µM)): 54.02
hypusination signal, Mean (quantification from Figure 3A) (DHPS [1]; Spermidine 5 µM, GC7 10 (µM)): 19.57
hypusination signal, Mean (quantification from Figure 3A) (DHPS [1]; Spermidine 5 µM, GC7 100 (µM)): 16.79
hypusination signal, Mean (quantification from Figure 3A) (DHPS [1]; Spermidine 5 µM, GC7 1000 (µM)): 0.5077
hypusination signal, Mean (quantification from Figure 3A) (DHPS [1]; Spermidine 5 µM, GC7 10000 (µM)): 0
hypusination signal, Mean (quantification from Figure 3A) (DHPS [1]; Spermidine 100 µM, GC7 1 (µM)): 100
hypusination signal, Mean (quantification from Figure 3A) (DHPS [1]; Spermidine 100 µM, GC7 10 (µM)): 95.15
hypusination signal, Mean (quantification from Figure 3A) (DHPS [1]; Spermidine 100 µM, GC7 100 (µM)): 91.8
hypusination signal, Mean (quantification from Figure 3A) (DHPS [1]; Spermidine 100 µM, GC7 1000 (µM)): 51.9
hypusination signal, Mean (quantification from Figure 3A) (DHPS [1]; Spermidine 100 µM, GC7 10000 (µM)): 0.07615
effect on hypusination (DHPS [1]; added during the first step (DHPS), 5 μM spermidine): total inhibition of hypusination
inhibition at 1 µM (DHPS [1]; at 1 µM, 5 µM spermidine (reviewer's reading of Fig. 3)): ~95%
ability to inhibit deoxyhypusination (DHPS [2]): efficient in inhibiting deoxyhypusination
Relative deoxyhypusination of eIF5A, Mean (quantification from Figure 3F, 3G) (DHPS [2]; CTRL 100,0, inhibitor concentration not given): 7,531 a.u
hypusinated eIF5A, Western blot quantification, Mean (Figure 5B) ([3]; 40 μM, Ctrl 100, 4 experiments): 20.45
inhibition at 40 µM ([3]; Homo sapiens): 80%
inhibition at 40 µM [4]: 80%
IC50 (DHPS [5]; ref 25): 17 nM
IC50 (DHPS [5]; ref 26): 50 nM
